Laboratory results from patent publication US9428553B2, “Meditopes and meditope-binding antibodies and uses thereof” (City of Hope, priority 2012, dated 2016).
“Also recorded” adds a separate entry of the source. Where a SMILES comes first, the peptide text is derived from it. Bridges are numbered along the chain shown (N, C = ends). Where no end group is shown, it is not given here.

Experiments:
[1] = tested on: cetuximab; test: SPR binding affinity as a function of buffer pH; settings: pH=4.0 to pH=8.0
Text: FIG. 27 is a graph showing surface plasmon resonance (SPR) studies.

[2] = tested on: cetuximab; test: SPR (Biacore T100), variant meditopes over immobilized cetuximab IgG or cetuximab Fab; assay type: binding; settings: in words
Experimental: The final volume after dialysis was carefully measured and absorbance measurements were taken to estimate the concentration (typically 1-10 mM). These stock solutions were used to make dilutions into HBS-EP buffer (10 mM Hepes pH 7.4, 150 mM NaCl, 3 mM EDTA and 0.05% v/v surfactant P20) for SPR measurements. […] Ligands were immobilized at low levels suitable for kinetic data. Typical kinetics SPR experiments were carried out at a flow rate of 30 μL/min using HBS-EP as both running and regeneration buffer. Kinetic parameters were calculated using the Biacore T100 evaluation software version 2.0.1.
Each chip was first characterized using a soluble fragment of the entire extracellular domain of EGFR (residues 1-621).

[3] = tested on: meditope-enabled M5A (M5A 8M); test: SPR, meditope variants with meditope-enabled M5A; assay type: binding; settings: FIG. 58
[4] = tested on: MDA-MB-468 cells; test: MTT assay; assay type: cell-based; settings: for cell growth: 48-hour incubation, 0.1 μM cetuximab, 0.01, 0.1 and 1 μM meditope or meditope-Fc
Experimental: 4000 MDA-MB-468 cells were placed in each well of a 96 well plate in 80 μl of medium.
The assay compared the enhancement of cetuximab-mediated inhibition of antigen-expressing tumor cell growth by meditope-Fc and by M425 (a mouse anti-EGFR antibody). 4000 MDA-MB-468 cells were placed in each well of a 96 well plate in 80 μl of medium. […] After a 48-hour incubation period, 10 μl MTT reagent was added and the mixture allowed to incubate for an additional 4 hours. The culture supernatant was removed, 100 μl of MTT crystal dissolving reagent added, and the plate read at 630 nm.

[5] = tested on: MDA MB-468 cells; test: FACS, cetuximab binding to EGFR-expressing cells in the presence of meditope; assay type: cell-based; settings: meditope concentrations greater than 60 μM
Experimental: Labeled MOPS-21 was used as an isotype control. Cell fluorescence was determined using a FACS Calibur instrument (BD Biosciences).

[6] = target: T1, sEGFRdIII (Homo sapiens, UniProt P00533); test: FRET titration of labeled cetuximab Fab with labeled sEGFRdIII; assay type: binding; settings: in the presence of the cQFD meditope (66 μM)
T1 construct: soluble epidermal growth factor receptor domain III (sEGFRdIII) were expressed in Sf9 cells; made in house; host or cells: Sf9 cells
T1 sequence (P00533 335-538 limits assumed): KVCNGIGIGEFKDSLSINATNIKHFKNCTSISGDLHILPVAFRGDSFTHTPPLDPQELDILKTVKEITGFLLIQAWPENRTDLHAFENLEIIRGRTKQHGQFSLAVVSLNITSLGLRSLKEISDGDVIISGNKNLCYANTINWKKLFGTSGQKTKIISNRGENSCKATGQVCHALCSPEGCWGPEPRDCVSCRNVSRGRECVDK

[7] = tested on: meditope-enabled trastuzumab (TM); test: SPR, MPL linker variants flowed over immobilized TM; settings: 1:1 langmuir binding model
Experimental: Protein was purified by affinity and size exclusion chromatography. […] Kinetic information was calculated using Biaevaluation software using a 1:1 langmuir binding model.

[8] = tested on: SKBR3 cells; test: FACS, antibody and meditope binding to HER2 over-expressing cells; assay type: cell-based
Text: Unbound antibody was washed twice and analyzed by flow cytometry.

[9] = tested on: cetuximab Fab; test: SPR, meditopes over cetuximab Fab immobilized on CM5 chip; assay type: binding; settings: relative to WT cQFD
Experimental: Affinity analysis by SPR was performed as previously described (Donaldson et al., 2009; Li et al., 2005, supra). […] SEC was performed using a Superdex 200 10/300 column (GE Healthcare). The proteins were mixed, incubated at room temperature for 20 min and applied to the column at 4° C.
The binding kinetics were also measured (FIG. 3).
The point mutation and wild type cQFD meditopes were generated as C-terminal fusions to SMT3 and cleaved with Ulp1 before the analysis.

[10] = tested on: MDA-MB-468 cells; test: FACS, meditope binding to cetuximab pre-treated EGFR-expressing cells; assay type: cell-based
Experimental: In another study, the meditope-Fc fusion protein was labeled with Alexa488 as described above. […] Unbound antibody was washed and the cells were incubated with the meditope-Fc (600 nM, 180 nM, or 60 nM) for 30 minutes.

C-QYDLSTRRLK-C (CQYDLSTRRLKC; disulfide 1-12) [Meditope 16, Y = tyrosine; Disulfide 1-Cys:12-Cys]
pH dependence of affinity [1]: marked decrease in affinity

Q-FDLSTRRLK-X [Meditope 42, X = 7-aminoheptanoic acid; Lactam 1-Gln: 11-X]
affinity compared to cQFD [2]: decreased

AcC-QFDLSTRRLR-CGGGSK [Meditope 31]
binding to meditope-enabled antibody [3]: confirming binding

CC(C)C[C@@H]1NC(=O)[C@H](CCCNC(=N)N)NC(=O)[C@H](CCCNC(=N)N)NC(=O)[C@H]([C@@H](C)O)NC(=O)[C@H](CO)NC(=O)[C@H](CC(C)C)NC(=O)[C@H](CC(=O)O)NC(=O)[C@H](Cc2ccccc2)NC(=O)[C@H](CCC(N)=O)NC(=O)[C@@H](N)CSSC[C@@H](C(=O)O)NC(=O)[C@H](CCCCN)NC1=O [Meditope 1]
pH dependence of affinity [1]: slightly greater at higher pHs | cell growth [4]: Neither addition of monovalent meditope (alone or with cetuximab), or meditope-Fc alone altered cell growth significantly | changes in cetuximab binding to the cells [5]: no significant changes | change in the binding constant of the Fab-sEGFRdIII interaction [6]: no substantial change

SQFDLSTRRLKS [Meditope 55, No linkage; linear peptide]
affinity compared to cQFD [2]: reduced affinity

MPL (L3): meditope SCQFDLSTRRLKC fused to Protein L moiety through linker GGGGS
off-rate, kd [7]: 6.441e-05 s⁻¹ | on-rate, ka [7]: 383200 M⁻¹ s⁻¹ | meditope binding to antibody pre-bound cells [8]: tight binding affinity

CC(C)C[C@@H]1NC(=O)[C@H](CCCNC(=N)N)NC(=O)[C@H](CCCNC(=N)N)NC(=O)[C@H]([C@@H](C)O)NC(=O)[C@H](CO)NC(=O)[C@H](CC(C)C)NC(=O)[C@H](CC(=O)O)NC(=O)[C@H](Cc2ccccc2)NC(=O)[C@H](CCC(N)=O)NC(=O)[C@@H](N)CSSC[C@@H](C(=O)O)NC(=O)[C@H](CCCCN)NC1=O [meditope]
off-rate, kd [7]: 0.01641 s⁻¹ | on-rate, ka [7]: 13250 M⁻¹ s⁻¹

CC(C)C[C@@H]1NC(=O)[C@H](C)NC(=O)[C@H](CCCNC(=N)N)NC(=O)[C@H](CO)NC(=O)[C@H](CO)NC(=O)[C@H](CC(C)C)NC(=O)[C@H](CC(N)=O)NC(=O)[C@H](Cc2ccc(O)cc2)NC(=O)[C@H](CCC(N)=O)NC(=O)[C@@H](N)CSSC[C@@H](C(=O)O)NC(=O)[C@H](CCCCN)NC1=O [Meditope 2]
pH dependence of affinity [1]: flat pH dependence | affinity compared to cQFD [2]: reduced | binding to meditope-enabled antibody [3]: confirming binding

CC(C)C[C@@H]1NC(=O)[C@H](CCCNC(=N)N)NC(=O)[C@H](CCCNC(=N)N)NC(=O)[C@H]([C@@H](C)O)NC(=O)[C@H](CO)NC(=O)[C@H](C(c2ccccc2)c2ccccc2)NC(=O)[C@H](CC(=O)O)NC(=O)[C@H](Cc2ccccc2)NC(=O)[C@H](CCC(N)=O)NC(=O)[C@@H](N)CSSC[C@@H](C(=O)O)NC(=O)[C@H](CCCCN)NC1=O [Meditope 18, C-QFDXSTRRLK-C]
binding to meditope-enabled antibody [3]: confirming binding

CC(C)C[C@@H]1NC(=O)[C@H](CCCNC(=N)N)NC(=O)[C@H](CCCNC(=N)N)NC(=O)[C@H]([C@@H](C)O)NC(=O)[C@H](CO)NC(=O)[C@H](CC(C)C)NC(=O)[C@H](CC(=O)O)NC(=O)[C@H](C(c2ccccc2)c2ccccc2)NC(=O)[C@H](CCC(N)=O)NC(=O)[C@@H](N)CSSC[C@@H](C(=O)O)NC(=O)[C@H](CCCCN)NC1=O [Meditope 17, C-QXDLSTRRLK-C]
binding to meditope-enabled antibody [3]: confirming binding

CC(C)C[C@@H]1NC(=O)[C@H](CC(=O)O)NC(=O)[C@H](Cc2ccccc2)NC(=O)[C@H](CCC(N)=O)NC(=O)[C@@H](N)CSSC[C@@H](C(=O)O)NC(=O)[C@H](CCCCN)NC(=O)[C@H](C)NC(=O)[C@H](CCCNC(=N)N)NC(=O)[C@H](CCCNC(=N)N)NC(=O)[C@H]([C@@H](C)O)NC(=O)[C@H](CO)NC1=O [Meditope 29] (H-CQFDLSTRRAKC-OH; disulfide 1-12)
ΔΔG [9]: 0.63 kcal/mol

meditope-Fc: cQFD fused to the N-terminus of an IgG Fc region through a 17 amino acid glycine/serine linker
binding to cells pre-treated with cetuximab [10]: higher affinity compared to the meditope monomer; also recorded: bound to the cells incubated with cetuximab, but not to cells incubated with M425 | enhancement of cell-killing capacity of cetuximab ([4]; 0.1 μM cetuximab with 0.2, 0.4 or 0.8 μM agent, 48 hours): enhanced the cell-killing capacity of cetuximab to a similar degree | cell growth [4]: inhibited cell growth | meditope binding to antibody pre-bound cells [8]: binds to the meditope-enabled trastuzumab, but not to wild-type trastuzumab

B1: MPL F3A R8A (L3): MPL mutant weakening the affinity of the meditope portion, linker L3 (protein)
chain: SCQADLSTARLKCGGGGSEVTIKVNLIFADGKIQTAEFKGTFEEATAEAYRYAALLAKVNGEYTADLEDGGNHMNIKFAG
off-rate, kd [7]: 0.02239 s⁻¹ | on-rate, ka [7]: 81350 M⁻¹ s⁻¹ | Kd ([7]; read-out: Dissociation constant, KD): 275 nM
